The values below come from PubChem BioAssay (NCI).

Common to all, as to assay: growth of human tumour cells (NCI), 48 h
Experiment [1] has as its system DU-145 prostate.
For experiment [2], the system named is MDA-MB-435.
Experiment [3] concerns NCI-H226 lung.
The subject of experiment [4] is UACC-62 melanoma.
Experiment [5] concerns KM12 colon.
Experiment [6] has as its system TK-10 renal.
Experiment [7] concerns IGROV1 ovarian.
Experiment [8] relates to UACC-257 melanoma.
For experiment [9], the system named is SK-MEL-28 melanoma.
Experiment [10] relates to SF-295 CNS.

SMILES strings stand for the structures.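 Test compounds were applied to cells in 96-well plates for 48 hours at 5 doses. GI50: concentration for 50% inhibition of growth. TGI: concentration producing complete growth inhibition.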

As for `COc1cccc(F)c1C(=O)c1cnc(NC2CCN(S(C)(=O)=O)CC2)nc1N`, the GI50 in experiment [1] was 6.54 µM; in [2], 2.48 µM; in experiment [3], 3.72 µM; in experiment [4], 2.66 µM; in [5], 2.02 µM; in experiment [6], 4.03 µM. The GI50 is 3.9 µM in experiment [7], 3.97 µM in experiment [8], 3.43 µM in experiment [9] and 3 µM in [10]. Besides, the TGI in experiment [1] was above 22.8 µM; in experiment [2], above 25 µM; in [3] it was above 18.9 µM; in experiment [4] it was 9.42 µM; in [5] it was above 20.7 µM; in [6], above 25 µM. The TGI in experiment [7] was above 25 µM; in experiment [8] it was 15.3 µM; in experiment [9], above 20.8 µM; in experiment [10] it was above 25 µM.

Consider `CC1(C)N=C(N)N=C(N)N1c1ccc(CCCCc2ccc(Cl)cc2S(=O)(=O)F)c(Cl)c1`, for which the GI50 was 0.558 µM in experiment [1]; 0.474 µM in experiment [2]; 1.23 µM in experiment [3]; 0.344 µM in [4]; 0.551 µM in experiment [5]; 5.82 µM in experiment [6]. The GI50 was 0.192 µM in experiment [7], 0.808 µM in [8], 0.965 µM in [9] and 0.409 µM in experiment [10]. The TGI is 15.8 µM in experiment [1]; 16.1 µM in experiment [2]; 29.2 µM in [3]; 14.3 µM in [4]; 14.4 µM in experiment [5]; 25.7 µM in [6]. In addition, the TGI in experiment [7] amounted to 21 µM; in [8], 17 µM; in [9], 8.46 µM; in [10], 12.8 µM.

As to `CC(=O)OC1COC(Oc2c(C)c3c4c(c2O)[C@@H](C)CC[C@@H]4[C@@H](C)C[C@H]3C=C(C)C)C(O)C1OC(C)=O` (some centres undefined), the GI50 was 16 µM in [1]; 10.8 µM in experiment [2]; 14.2 µM in experiment [3]; 15.1 µM in experiment [4]; 17.4 µM in experiment [5]; 24.1 µM in experiment [6]. Also, the GI50 in experiment [7] is 13.4 µM; in [8] it was 14.1 µM; in experiment [9] it was 25.4 µM; in experiment [10], 17.1 µM. Also, the TGI in experiment [1] is 32.5 µM; in experiment [2], 23.8 µM; in [3], 31.4 µM; in [4], 28.9 µM; in [5] it was 36.4 µM; in experiment [6], 46.3 µM. Moreover, the TGI in [7] amounted to 28.8 µM; in [8] it was 28.4 µM; in experiment [9] it was 56.2 µM; in experiment [10] it was 33.2 µM.

On to `COc1ccccc1/C=N\N/C(N)=N\N=C\c1ccccc1OC`, for which the GI50 was 0.386 µM in experiment [1]; 0.0235 µM in experiment [2]; 8.31 µM in experiment [3]; 0.497 µM in experiment [4]; 0.264 µM in experiment [5]; 0.524 µM in experiment [6]. The GI50 in [7] was 0.923 µM; in experiment [8] it was 4.29 µM; in experiment [9], 2.64 µM; in experiment [10], below 0.0478 µM. The TGI in experiment [1] is 2.73 µM; in experiment [2], 0.0824 µM; in experiment [3] it was above 47 µM; in experiment [4] it was above 40.7 µM; in [5], 1.36 µM; in experiment [6] it was 8.89 µM. Besides, the TGI in experiment [8] is above 23.6 µM; in [9] it was 28.4 µM; in [10], 0.163 µM.

As for `COc1cc(C(=O)N2CCN(C=O)C2=S)cc(OC)c1OC`, the GI50 in experiment [1] was 19.6 µM; in experiment [2] it was 15.5 µM; in [3], 35.9 µM; in experiment [4], 15.8 µM; in experiment [5], 14.4 µM; in experiment [6], 17.1 µM. In addition, the GI50 is 21.9 µM in experiment [7], 19.9 µM in [8], 29.5 µM in experiment [9] and 29.3 µM in [10]. In addition, the TGI is 56.6 µM in experiment [1]; 30.8 µM in [2]; 84.6 µM in [3]; 30.4 µM in experiment [4]; 29.5 µM in experiment [5]; 36.7 µM in experiment [6]. In addition, the TGI in experiment [7] was 57.3 µM; in experiment [8], 45.4 µM; in experiment [9] it was above 100 µM; in experiment [10] it was above 100 µM.

Turning to `COc1cc(Nc2ncccc2C(=O)NCc2cn(Cc3cccc(Oc4ccccc4)c3)nn2)cc(OC)c1`, the GI50 in experiment [1] was 10.5 µM; in experiment [2], 2.23 µM; in experiment [3] it was 9.82 µM; in [4], 3.68 µM; in experiment [5] it was 3.84 µM; in experiment [6], 51.6 µM. Moreover, the GI50 in [7] was above 100 µM; in experiment [8] it was 4.86 µM; in [9], 4.14 µM; in experiment [10] it was 4.06 µM. For the same molecule, the TGI in [1] is above 100 µM; in experiment [2], 5.43 µM; in [3], above 100 µM; in [4] it was above 100 µM; in experiment [5], above 100 µM; in experiment [6] it was above 100 µM. Besides, the TGI in experiment [7], in experiment [8], in [9] and in experiment [10] was above 100 µM in each case.

For `COC(=O)c1ccc2c(c1)nc(NC(=O)c1ccccc1)n2CCCc1ccccc1`, the GI50 in [1] is 11.5 µM; in experiment [2] it was 3.4 µM; in [3], 11.2 µM; in experiment [4] it was 2.49 µM; in [5], 4.5 µM; in [6], 8.86 µM. In addition, the GI50 in [7] is 5.01 µM; in [8] it was 6.85 µM; in [9], 3.79 µM; in [10], 3.62 µM. Besides, the TGI is above 100 µM in experiment [1]; above 100 µM in [2]; above 100 µM in experiment [3]; above 27 µM in [4]; above 100 µM in [5]; above 100 µM in [6]. Moreover, the TGI in experiment [7], in experiment [8], in [9] and in [10] was above 100 µM throughout.
